Counter-ions that a name gives are not always drawn.
Tests used:
[1] = tested on: Human Jurkat-E6-1 cells; experiment: Measurement of IL-2 secretion of Jurkat cells by ELISA; format: cell-based; conditions: Homo sapiens, Jurkat E6.1; test compound 3.0 μM; anti-CD3/anti-CD28 stimulation 24 hours; read-out: Percentage of the amount of IL-2 secreted from compound treated/DMSO-treated cells
Method: 2. Measurement of IL-2 Secretion of Jurkat Cells by ELISA
Human Jurkat-E6-1 cells were incubated with various concentrations of test compounds for 30 minutes in a humidified incubator at 37° C. and […]. Cells were transferred to cell culture plates pre-coated with anti-human CD3 antibody, then soluble anti-human CD28 antibody was added, and cells were stimulated for 24 hours at 37° C. and 5% CO2 in a humidified incubator. The cell culture medium was collected by centrifugation, and was then transferred to a 96-well transparent microtiter plate (Thermo) pre-coated with anti-human IL-2 antibody, incubated at room temperature for 2 hours, and gently shaken, washed with washing buffer for 4 times, and then followed the ELISA MAX Deluxe Set Human IL-2 (BioLegend) kit procedure, used a microplate reader (Molecular Device, i3X) to read the GD value. The best standard curve was selected by the microplate reader application software, and the corresponding concentration was calculated according to the GD value of the standard. Results are expressed as a percentage of the amount of IL-2 secreted from compound-treated/DMSO-treated cells.

[2] = target: HPK1 (Homo sapiens (Human), UniProt Q92918); experiment: HPK1 kinase activity inhibition test (ADP-Glo, luminescence); format: biochemical; conditions: HPK1 5 nM, ATP 2 μM, read-out: IC50, inhibitory effects of compounds on HPK1 kinase activity
In short: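 HPK1 autophosphorylation was run without added substrate. Kinase and compound were preincubated 10 min at 25° C., then ATP was added for 60 min at 25° C. ADP formed was detected by ADP-Glo luminescence, and IC50 was taken from a four-parameter nonlinear fit.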

Sequence of HPK1 (Q92918 whole entry): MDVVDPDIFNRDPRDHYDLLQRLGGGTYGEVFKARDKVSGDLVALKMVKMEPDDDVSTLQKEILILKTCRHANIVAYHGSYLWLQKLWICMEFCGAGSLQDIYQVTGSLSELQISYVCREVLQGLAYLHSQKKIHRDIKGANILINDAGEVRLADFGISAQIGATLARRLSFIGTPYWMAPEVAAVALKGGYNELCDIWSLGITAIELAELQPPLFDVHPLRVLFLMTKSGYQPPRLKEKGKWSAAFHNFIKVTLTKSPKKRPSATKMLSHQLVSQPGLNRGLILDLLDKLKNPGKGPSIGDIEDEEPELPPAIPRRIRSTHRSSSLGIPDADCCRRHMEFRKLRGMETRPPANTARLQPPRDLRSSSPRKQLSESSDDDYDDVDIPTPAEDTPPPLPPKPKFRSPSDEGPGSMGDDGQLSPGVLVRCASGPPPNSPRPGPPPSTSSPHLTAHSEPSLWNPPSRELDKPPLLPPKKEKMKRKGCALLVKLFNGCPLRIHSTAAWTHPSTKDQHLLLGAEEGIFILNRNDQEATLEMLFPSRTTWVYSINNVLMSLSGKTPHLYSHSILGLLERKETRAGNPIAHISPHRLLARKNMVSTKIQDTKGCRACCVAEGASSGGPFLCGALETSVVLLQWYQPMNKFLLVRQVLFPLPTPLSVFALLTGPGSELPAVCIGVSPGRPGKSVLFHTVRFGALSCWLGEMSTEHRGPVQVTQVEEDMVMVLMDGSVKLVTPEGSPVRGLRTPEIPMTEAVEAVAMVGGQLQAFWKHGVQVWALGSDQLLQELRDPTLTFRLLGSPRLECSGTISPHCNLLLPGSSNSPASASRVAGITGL

Row | Structure (SMILES) | IC50 [2] [nM] | activity at 3 µM [1] [%]
1 | Cc1cccc(F)c1-n1nc2c(-c3ccc(OCC4CNCCN4)cc3)n[nH]c2cc1=O (stereo not drawn) [Compound 93, 5-(2-fluoro-6-methylphenyl)-3-(4-(piperazin-2-ylmethoxy)phenyl)-1H-pyrazolo[4,3-c]pyridazin-6(5H)-one] | ≤ 50 | 210
2 | Cc1cccc(F)c1-n1nc2c(-c3ccc(N4CCN(C)CC4)c(F)c3)n[nH]c2cc1=O [Compound 94] | ≤ 50 | 414
3 | CN1CCN(c2ccc(-c3n[nH]c4cc(=O)n(-c5c(O)cccc5F)nc34)cn2)CC1 [Compound 100, 5-(2-fluoro-6-hydroxylphenyl)-3-(6-(4-methylpiperazin-1-yl)pyrid-3-yl)-1H-pyrazolo[4,3-c]pyridazin-6(5H)-one hydrobromide] | 50 to 500 | 284
4 | CCS(=O)(=O)N1CCN(c2ccc(-c3n[nH]c4cc(=O)n(-c5c(C)cccc5F)nc34)cn2)CC1 [Compound 105] | ≤ 50 | 623
5 | CN1CCN(c2ccc(-c3n[nH]c4cc(=O)n(-c5c(F)cccc5Cl)nc34)cn2)CC1 [Compound 107] | ≤ 50 | 599
6 | Cc1cccc(F)c1-n1nc2c(-c3ccc(N4CC5CCC(C4)N5C)nc3)n[nH]c2cc1=O [Compound 109, 5-(2-fluoro-6-methylphenyl)-3-(6-(8-methyl-3,8-diazabicyclo[3.2.1]octan-3-yl)pyrid-3-yl)-1H-pyrazolo[4,3-c]pyridazin-6(5H)-one] | ≤ 50 | 491
7 | CCc1cccc(F)c1-n1nc2c(-c3ccc(N4CCN(CCO)CC4)cc3)n[nH]c2cc1=O [Compound 112, 5-(2-ethyl-6-fluorophenyl)-3-(4-(4-(2-hydroxyethyl)piperazin-1-yl)phenyl)-1H-pyrazolo[4,3-c]pyridazin-6(5H)-one] | ≤ 50 | 703
8 | COc1cc(C#N)cc(F)c1-n1nc2c(-c3ccc(N4CCN(CCO)CC4)cc3)n[nH]c2cc1=O [Compound 114, 3-fluoro-4-(3-(4-(4-(2-hydroxyethyl)piperazin-1-yl)phenyl)-6-oxo-1H-pyrazolo[4,3-c]pyridazin-5(6H)-yl)-5-methoxybenzonitrile] | ≤ 50 | 309
9 | COc1cccc(F)c1-n1nc2c(-c3ccc(N4CCN(CC(C)(C)O)CC4)cc3)n[nH]c2cc1=O [Compound 115, 5-(2-fluoro-6-methoxyphenyl)-3-(4-(4-(2-hydroxyl-2-methylpropyl)piperazin-1-yl)phenyl)-1H-pyrazolo[4,3-c]pyridazin-6(5H)-one] | ≤ 50 | 542
10 | Cc1cccc(F)c1-n1nc2c(-c3ccc(N4CC5CCC(C4)N5CCO)cc3)n[nH]c2cc1=O [Compound 117, 5-(2-fluoro-6-methylphenyl)-3-(4-(8-(2-hydroxyethyl)-3,8-diazabicyclo[3.2.1]octan-3-yl)phenyl)-1H-pyrazolo[4,3-c]pyridazin-6(5H)-one] | ≤ 50 | 566
11 | COc1cc(C#N)cc(F)c1-n1nc2c(-c3ccc(N4CCN5C(=O)OCC5C4)cc3)n[nH]c2cc1=O (stereo not drawn) [Compound 124, 3-fluoro-5-methoxy-4-(6-oxo-3-(4-(3-oxotetrahydro-1H-oxazolo[3,4-a]pyrazin-7(3H)-yl)phenyl)-1H-pyrazolo[4,3-c]pyridazin-5(6H)-yl)benzonitrile] | ≤ 50 | 570
12 | Cc1cccc(F)c1-n1nc2c(-c3ccc(N4CCN(C)C(C(C)(C)O)C4)cc3)n[nH]c2cc1=O (stereo not drawn) [Compound 125, 5-(2-fluoro-6-methylphenyl)-3-(4-(3-(2-hydroxylprop-2-yl)-4-methylpiperazin-1-yl)phenyl)-1H-pyrazolo[4,3-c]pyridazin-6(5H)-one] | ≤ 50 | 216

Now from value to compound, other results behind:

Row | IC50 [2] [nM] | Structure (SMILES) | activity at 3 µM [1] [%]
13 | ≤ 50 | CCc1cccc(F)c1-n1nc2c(-c3ccc(N4CCN(C)CC4)nc3)n[nH]c2cc1=O [Compound 98, 5-(2-ethyl-6-fluorophenyl)-3-(6-(4-methylpiperazin-1-yl)pyrid-3-yl)-1H-pyrazolo[4,3-c]pyridazin-6(5H)-one] | 850
14 | 50 to 500 | Cc1cc(C#N)cc(F)c1-n1nc2c(-c3ccc(N4CCN(C)CC4)nc3)n[nH]c2cc1=O [Compound 99, 3-fluoro-5-methyl-4-(3-(6-(4-methylpiperazin-1-yl)pyrid-3-yl)-6-oxo-1H-pyrazolo[4,3-c]pyridazin-5(6H)-yl)benzonitrile] | 237
15 | ≤ 50 | Cc1cccc(F)c1-n1nc2c(-c3ccc(N4CCN(C5COC5)CC4)nc3)n[nH]c2cc1=O [Compound 103] | 716
16 | ≤ 50 | Cc1cccc(F)c1-n1nc2c(-c3ccc(N4CCN(C5CCOC5)CC4)nc3)n[nH]c2cc1=O (stereo not drawn) [Compound 106, 5-(2-fluoro-6-methylphenyl)-3-(6-(4-(tetrahydrofuran-3-yl)piperazin-1-yl)pyrid-3-yl)-1H-pyrazolo[4,3-c]pyridazin-6(5H)-one] | 833
17 | 50 to 500 | Cc1cc(Cl)cc(F)c1-n1nc2c(-c3ccc(N4CCN(C)CC4)nc3)n[nH]c2cc1=O [Compound 108] | 312
18 | ≤ 50 | COc1cccc(F)c1-n1nc2c(-c3cnc(N4CCOCC4)nc3)n[nH]c2cc1=O [Compound 111, 5-(2-fluoro-6-methoxyphenyl)-3-(2-morpholinyl-pyrimidin-5-yl)-1H-pyrazolo[4,3-c]pyridazin-6(5H)-one] | 522
19 | ≤ 50 | COc1cccc(F)c1-n1nc2c(-c3ccc(N4CCN(CCO)CC4)cc3)n[nH]c2cc1=O [Compound 113, 5-(2-fluoro-6-methoxyphenyl)-3-(4-(4-(2-hydroxyethyl)piperazin-1-yl)phenyl)-1H-pyrazolo[4,3-c]pyridazin-6(5H)-one] | 368
20 | ≤ 50 | Cc1cccc(F)c1-n1nc2c(-c3ccc(N4CCN(CCO)CC4)nc3)n[nH]c2cc1=O [Compound 118, 5-(2-fluoro-6-methylphenyl)-3-(6-(4-(2-hydroxyethyl)piperazin-1-yl)pyrid-3-yl)-1H-pyrazolo[4,3-c]pyridazin-6(5H)-one] | 550
21 | ≤ 50 | COCCN1CCN(c2ccc(-c3n[nH]c4cc(=O)n(-c5c(C)cccc5F)nc34)cn2)CC1 [Compound 119, 5-(2-fluoro-6-methylphenyl)-3-(6-(4-(2-methoxyethyl)piperazin-1-yl)pyrid-3-yl)-1H-pyrazolo[4,3-c]pyridazin-6(5H)-one] | 531
22 | ≤ 50 | Cc1cccc(F)c1-n1nc2c(-c3ccc(N4CCN(C)C(CO)C4)cc3)n[nH]c2cc1=O (stereo not drawn) [Compound 120, 5-(2-fluoro-6-methylphenyl)-3-(4-(3-(hydroxymethyl)-4-methylpiperazin-1-yl)phenyl)-1H-pyrazolo[4,3-c]pyridazin-6(5H)-one] | 482
23 | ≤ 50 | COc1cccc(F)c1-n1nc2c(-c3ccc(N4CCN(C)C(CO)C4)cc3)n[nH]c2cc1=O (stereo not drawn) [Compound 121, 5-(2-fluoro-6-methoxyphenyl)-3-(4-(3-(hydroxymethyl)-4-methylpiperazin-1-yl)phenyl)-1H-pyrazolo[4,3-c]pyridazin-6(5H)-one] | 459
24 | ≤ 50 | COc1cccc(F)c1-n1nc2c(-c3ccc(N4CCN(C)C(C(C)(C)O)C4)cc3)n[nH]c2cc1=O (stereo not drawn) [Compound 126] | 428

From patent publication US20230322789A1, “PYRAZOLOPYRIDAZINONE COMPOUND, AND PHARMACEUTICAL COMPOSITION AND USE THEREOF” (BroadenBio Co., Ltd., priority 2020, published 2023)
